“Also recorded” adds a separate entry of the source. Bridge positions count the residues as written; N and C are the ends. Square brackets hold non-standard residues; d marks the D form. Peptide text beside a SMILES is read from it.
How the values were obtained:
[1] = system: T84 cells; assay: MicroRNA microarray analysis of SP-333 treated T84 cells; assay type: cell-based, human; conditions: T84, 1 μM, 5 h
Procedure: T84 cells were grown to confluence in 100 mm tissue culture dishes. Cells were treated with pre-determined concentration of SP-333 (1 μM) in the presence of phosphodiesterase inhibitor, zaprinast (500 μM; Sigma Aldrich) for 5 hours. Following treatment, cells were trypsinized and the sample was divided into 3 aliquots. One aliquot was used to determine total cGMP. Another was used for extracting total RNA. The last aliquot was used to extract and purify miRNAs using Norgen's Kit (Norgen BioteK). Briefly, cells were lysed using lysis buffer, passed through a column to remove large RNA, followed by capturing miRNA using microRNA enrichment column. Purified samples were stored at −20° C. MicroRNAs were profiled on a LC Sciences microarray chip and TaqMan Open Array Human miRNA panel.

[2] = system: LPS stimulated T84 cells; assay: Cytokines expression analysis (ELISA) in LPS stimulated T84 cells; assay type: cell-based, human; conditions: LPS 10 μg/ml 4 h, then SP-333 16 h
Procedure: To evaluate the effect of different concentrations of SP-333 on secretion of cytokines (IL-8 and TNF), 12-well plates seeded with 10^5 cells/well were used. At 85-90% confluence, cells were washed with DPBS and treated with or without LPS (10 μg/ml) for 4 h, followed by washing with phosphate buffered saline (PBS). SP-333 at 0, 0.01, 0.1, 1 and 10 μM) together with 500 μM of Zaprinast was added to the treated cells and incubated further for 16 h. The levels of IL-8 and TNF were quantified using human IL-8 and TNF ELISA development kits (Peprotech, Rocky Hill, N.J.) Each ELISA was performed in triplicate with cell-free supernatants from two independent experiments. The protein concentration of each well was assessed by Bio-Rad protein dye detection kit.

[3] = assay type: in vitro ADME
Procedure: Plecanatide and SP-333 were incubated in simulated intestinal fluid (SIF) for 6-24 h. Inactivated SIF was used as a control. Following the treatment, samples were analyzed by HPLC by cGMP production in T84 cells. […] The active metabolite, SP-338 was characterized by MS and MS/MS and identified to be formed via removal of carboxyl terminal leucine possibly due to cleavage by carboxypeptidases.

[4] = system: DSS-induced colitis; assay: DSS-induced colitis in BDF-1 mice; assay type: in vivo, mouse
Procedure: To evaluate the efficacy of plecanatide in DSS induced colitis model, 48 BDF-1 mice were divided into 8 treatment groups (6 mice/group). One group was not exposed to DSS (untreated control) and groups 2-8 were treated with 5% DSS in the drinking water on day 0. Plecanatide or SP-333 solutions formulated in 0.1M phosphate buffer (pH 7) was administered by oral gavage, once a day at 0.005, 0.05, 0.5, 2.5 and 5 mg/kg, from study day −1 (i.e. prior to initiation of DSS treatment) through day 6 for SP-333 or day 7 for plecanatide. DSS treatment was initiated on day 0 for groups 2-8 until the end of the study. Sulfasalazine (80 mg/kg) or 5-ASA (100 mg/kg) was used as positive control and was administered daily. Mice were sacrificed on day 7. The large intestine was removed and weighed. Distal section of the large intestine was collected and fixed as described above.
Disease activity index (DAI) was calculated by scoring in-life parameters starting from day −1 until the end of the study. Once daily, all mice were weighed and assessed for stool consistency, and the presence of overt blood in the stool or around the anus essentially similar to that reported earlier. Colitis severity was assessed by histopathological analyses of H&E stained tissue sections (Hegazi et al., 2005; Dave et al., 2009) employing the following criteria: (score 0) normal appearing crypts; (score 1) abnormal crypt pathology without ulceration; (score 2) depleted crypts with ulceration; (score 3) 20-50% depleted crypts and increased ulceration; (score 4) >50% depleted crypts with substantial ulceration and (score 5) totally ulcerated/inflamed colon with no crypts remaining. All slides were scored in a blinded manner. Colitis severity in TCRα−/− model was scored as previously described^25. All slides were scored in a blinded manner. Disease activity index (DAI) was calculated by assessing body weight, stool consistency, and the presence of overt blood in stools or around the anus, essentially similar to that reported earlier (Hamamoto et al., 1999).

[5] = Table 8: downregulated under NF-κB
[6] = Table 8: upregulated under NF-κB
[7] = SP-333 0.005 to 5 mg/kg oral daily, vs DSS alone or DSS plus vehicle

In the case of CC(C)C[C@@H]1NC(=O)[C@H](CCC(=O)O)NC(=O)[C@@H](NC(=O)[C@H](CCC(=O)O)NC(=O)[C@H](CC(=O)O)NC(=O)[C@H](N)CC(N)=O)CSSC[C@@H]2NC(=O)[C@H](C)NC(=O)[C@H](C(C)C)NC(=O)[C@H](CC(N)=O)NC(=O)[C@H](C(C)C)NC(=O)[C@H](CSSC[C@@H](C(=O)N[C@H](CC(C)C)C(=O)O)NC(=O)CNC(=O)[C@H]([C@@H](C)O)NC2=O)NC1=O [SP-333, dAsn^1-Asp^2-Glu^3-Cys^4-Glu^5-Leu^6-Cys^7-Val^8-Asn^9-Val^10-Ala^11-Cys^12-Thr^13-Gly^14-Cys^15-dLeu^16] (H-[dN]DECELCVNVACTGC[dL]-OH; disulfide 4-12, 7-15; N-terminus and C-terminus assumed), the miR-133b level ([1]; Table 8: downregulated in CRC) is reported as “increase”, the miR-139-5p level ([1]; Table 8: downregulated in CRC) is reported as “increase” and the miR-133a level ([1]; Table 8: downregulated in CRC, p<0.01) is reported as “increase”. The miR-218 level [1, 5] was “increase”, the miR-223 level [1, 5] was “increase” and the mir-29b level [1, 5] was “increase”. For the same molecule, the miR-16 level ([1]; Table 8: downregulated under NF-κB, p<0.01) was “upregulated; also recorded: increase”, the miR-15a level ([1]; Table 8: downregulated under NF-κB, p<0.05) was “upregulated; also recorded: increase” and the miR-92 level ([1]; Table 8: upregulated in CRC) was “decrease”. The miR-26b level ([1]; Table 8: upregulated in IBD) was “decrease”, the miR-28-5p level ([1]; Table 8: upregulated in IBD) was “decrease” and the miR-98 level ([1]; Table 8: upregulated in IBD) was “decrease”. For the same molecule, the miR-99a level ([1]; Table 8: upregulated in IBD) was “decrease”, the miR-203 level ([1]; Table 8: upregulated in IBD) was “decrease” and the miR-362-3p level ([1]; Table 8: upregulated in IBD) was “decrease”. The miR-532-3p level ([1]; Table 8: upregulated in IBD) was “decrease”, the miR-10a level [1, 6] was “decrease” and the miR-27b level [1, 6] was “decrease”. For the same molecule, the miR-30b level [1, 6] was “decrease”, the miR-301 level [1, 6] was “decrease” and the miR-199-3p level ([1]; Table 8: upregulated under NF-κB and cMyc) was “decrease”. For the same molecule, the miR-224 level ([1]; Table 8: upregulated under cMyc) was “decrease”, the miR-125b level ([1]; p<0.001) was “upregulated” and the let-7i level ([1]; p<0.005) was “upregulated”. The miR-494 level ([1]; p<0.005) was “reduced”, the “miR-41-3p level (negative regulator of c-Src)” value ([1]; p<0.01) was “significantly increased” and the miR-200c level ([1]; p<0.01) was “reduced”. For the same molecule, the “family of miR-29 level” value ([1]; p<0.05) was “upregulated”, the miR-30c level ([1]; p<0.05) was “increased” and the miR-92a level ([1]; p<0.05) was “reduced”. For the same molecule, the “LPS stimulated production of IL-8” value [2] was “concentration dependent reversal”, the “LPS stimulated production of TNF” value [2] was “concentration dependent reversal” and the “stability in simulated gastric and intestinal fluids” value [3] was “stable”. The histopathology score ([4]; DSS+SP-333 0.005 mg/kg, representative image FIG. 10C (DSS alone 4)) was 1, the histopathology score ([4]; DSS+SP-333 0.05 mg/kg, representative image FIG. 10D) was 2 and the histopathology score ([4]; DSS+SP-333 0.5 mg/kg, representative image FIG. 10E) was 2. The “amelioration of colitis compared with 5-ASA” value ([4]; SP-333 0.005 mg/kg oral) was “as effective as 5-ASA (100 mg/kg)”, the DAI ([4]; SP-333 0.05 mg/kg oral, vs DSS vehicle control, p=0.041) was “significant reduction” and the “mean DAI scores” value [4, 7] was “lower”. For the same molecule, the “mean scores of colitis severity” value [4, 7] was “lower” and the “histological evaluation of colon tissues (crypts)” value ([4]; SP-333 treatment groups) was “minimal loss of crypts with very low distortions in crypt morphology”.
